# In the supplement of paper PMC4862054:
# Columns and labels:
# Settings in all cases: 72 h
# [1] = system: CAL-51
# Experimental: (§1)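 Drug sensitivity and resistance testing (DSRT) of breast cancer cell lines in 384-well plates, 5 concentrations in 10-fold dilutions over a compound-specific 10,000-fold range. After 72 h, cytotoxicity was read by CellTox Green fluorescence and viability by CellTiter-Glo luminescence (multiplexed), normalised to DMSO and benzethonium chloride controls. EC50 is the inflection point of the fitted dose-response curve (bottom asymptote free, so it can be relative for partial curves) and is censored at the highest tested concentration. Rows with DSS 0 (no meaningful response) were excluded.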
# [2] = system: CAL-148
# Experimental: as §1
# [3] = system: CAL-85-1
# Experimental: as §1
# [4] = system: MCF-10A
# Experimental: as §1
# [5] = system: MFM-223
# Experimental: as §1
# [6] = system: BT-474
# Experimental: as §1
# [7] = system: MDA-MB-468
# Experimental: as §1
# [8] = system: CAL-148; remark: listed apart in the source
# Method in brief: (§2)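 EC50 was fitted from dose-response curves and censored at the highest concentration tested. To build those curves, breast cancer cell lines (20 µl suspension) were seeded into 384-well plates containing compound at 5 concentrations in 10-fold steps over a compound-specific 10,000-fold range and incubated for 72 h. Readouts were CellTox Green fluorescence (485/520 nm) for cell death and then CellTiter-Glo luminescence for viability, with each plate normalised to 0.1 % DMSO and a positive kill control.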
# [9] = system: MCF-10A; remark: listed apart in the source
# Method in brief: as §2
# [10] = system: HCC1143
# Method in brief: as §2
# [11] = system: CAL-120
# Method in brief: (§3)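 The reported EC50 was fitted from percent-inhibition dose-response curves and censored at the highest concentration. Breast cancer cell lines (20 µl suspension) were added to 384-well plates containing compound in 5 µl medium and incubated 72 h, and viability was read with 2.5 µl CellTiter-Blue over 2 h at 37 °C at 560/590 nm. Each plate was normalised to vehicle and a positive kill control and checked by Z'-factor, and rows with zero drug sensitivity score were dropped.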
# [12] = system: SK-BR-3
# Method in brief: as §3
# [13] = system: MFM-223; remark: listed apart in the source
# Method in brief: as §3
# [14] = system: HCC1937
# Method in brief: as §3
# [15] = system: HCC1143; remark: listed apart in the source
# Method in brief: as §3
# [16] = system: HCC1599
# Method in brief: as §3
# [17] = system: BT-474; remark: listed apart in the source
# Method in brief: as §3
# [18] = system: Hs578T
# Method in brief: as §3
# [19] = system: BT-549
# Method in brief: as §3
# [20] = system: MDA-MB-231
# Method in brief: as §3
# [21] = system: MDA-MB-436
# Method in brief: as §3
# [22] = system: MDA-MB-468; remark: listed apart in the source
# Method in brief: as §3
# [23] = system: HDQ-P1
# Method in brief: as §3
# [24] = system: CAL-120; remark: listed apart in the source
# Experimental: as §1
# [25] = system: HCC1143; remark: listed apart in the source
# Experimental: as §1
# [26] = system: Hs578T; remark: listed apart in the source
# Experimental: as §1
# [27] = system: BT-549; remark: listed apart in the source
# Experimental: as §1
# [28] = system: MDA-MB-231; remark: listed apart in the source
# Experimental: as §1
# [29] = system: HCC1937; remark: listed apart in the source
# Experimental: as §1
# [30] = system: HDQ-P1; remark: listed apart in the source
# Experimental: as §1
# [31] = system: MDA-MB-453
# Experimental: as §1
# [32] = system: MDA-MB-436; remark: listed apart in the source
# Experimental: as §1
# [33] = system: DU-4475
# Experimental: as §1
# [34] = system: HCC1599; remark: listed apart in the source
# Experimental: as §1
Structure (SMILES),"EC50, CellTox Green [1] [nM]","EC50, CellTox Green [2] [nM]","EC50, CellTox Green [3] [nM]","EC50, CellTox Green [4] [nM]","EC50, CellTox Green [5] [nM]","EC50, CellTox Green [6] [nM]","EC50, CellTox Green [7] [nM]","EC50, CellTiter-Glo [8] [nM]","EC50, CellTiter-Glo [9] [nM]","EC50, CellTiter-Glo [10] [nM]","EC50, CellTiter-Blue viability [11] [nM]","EC50, CellTiter-Blue viability [12] [nM]","EC50, CellTiter-Blue viability [13] [nM]","EC50, CellTiter-Blue viability [14] [nM]","EC50, CellTiter-Blue viability [15] [nM]","EC50, CellTiter-Blue viability [16] [nM]","EC50, CellTiter-Blue viability [17] [nM]","EC50, CellTiter-Blue viability [18] [nM]","EC50, CellTiter-Blue viability [19] [nM]","EC50, CellTiter-Blue viability [20] [nM]","EC50, CellTiter-Blue viability [21] [nM]","EC50, CellTiter-Blue viability [22] [nM]","EC50, CellTiter-Blue viability [23] [nM]","EC50, CellTox Green [24] [nM]","EC50, CellTox Green [25] [nM]","EC50, CellTox Green [26] [nM]","EC50, CellTox Green [27] [nM]","EC50, CellTox Green [28] [nM]","EC50, CellTox Green [29] [nM]","EC50, CellTox Green [30] [nM]","EC50, CellTox Green [31] [nM]","EC50, CellTox Green [32] [nM]","EC50, CellTox Green [33] [nM]","EC50, CellTox Green [34] [nM]"
CC(=O)[C@]1(O)Cc2c(O)c3c(c(O)c2[C@@H](O[C@H]2C[C@H](N)[C@H](O)[C@H](C)O2)C1)C(=O)c1ccccc1C3=O [Idarubicin],148,31.9,198,642,806,53.5,82.7,125,455,531,42.2,24.5,263,5.47,91.5,945,116,93.8,91.5,79.6,96.8,53,277,–,–,–,–,–,–,–,–,–,–,–
O=C(CCCCCCC(=O)Nc1ccccc1)NO [Vorinostat],2660,8260,–,–,–,6410,6570,2140,8980,4590,1720,617,2050,2480,2590,3270,2290,3080,2860,3110,–,1480,–,6840,6130,948,> 10000,1720,–,–,–,–,–,–
O=[N+]([O-])c1ccc2c(c1)S(=O)(=O)C=C2 [Stattic],1390,3870,1110,1190,1230,1890,1130,4640,17400,13200,–,–,–,–,–,–,–,–,–,–,–,–,–,34300,13800,1710,1070,5150,349,34000,27400,14400,–,–
CC(C)n1cnc2c(NCCc3ccc(O)cc3)nc(-c3csc4ccccc34)nc21 [StemRegenin 1],–,–,–,–,2810,> 10000,–,–,–,–,–,–,–,–,–,–,–,–,–,–,–,–,–,–,–,–,–,–,–,–,–,–,–,–
CCNC(=O)c1noc(-c2cc(C(C)C)c(O)cc2O)c1-c1ccc(CN2CCOCC2)cc1 [NVP-AUY922],74.6,29.5,84.1,7.61,–,219,–,41.4,27.6,38.7,7.81,6.13,5.15,0.76,32.2,45.2,23.4,3.74,5.61,6.7,10.2,7.89,9.72,> 1000,–,247,–,9.41,987,33,> 1000,–,25.2,–
CN(Cc1cnc2nc(N)nc(N)c2n1)c1ccc(C(=O)N[C@@H](CCC(=O)O)C(=O)O)cc1 [Methotrexate],–,–,> 50000,–,–,–,–,–,–,–,15.9,23.5,–,–,15.2,–,–,51.5,–,–,–,25.1,–,–,–,11000,–,–,–,–,> 50000,17900,–,–
Cn1cc(C2=C(c3cn(C4CCN(Cc5ccccn5)CC4)c4ccccc34)C(=O)NC2=O)c2ccccc21 [Enzastaurin],–,–,–,–,–,–,–,–,–,–,–,667,642,5370,418,–,1670,873,857,–,129,–,1000,–,–,–,–,–,–,–,–,–,–,–
CC1(COc2ccc3c(c2)ncn3-c2ccc3cccc(N4CCC(N)CC4)c3n2)COC1 [Crenolanib],4710,2530,2620,3370,–,2390,–,4350,4780,–,–,–,–,–,–,–,–,–,–,–,–,–,–,–,–,–,3000,2710,–,1040,–,29.3,> 10000,–
CC1(C)CCC(c2ccc(Cl)cc2)=C(CN2CCN(c3ccc(C(=O)NS(=O)(=O)c4ccc(N[C@H](CCN5CCOCC5)CSc5ccccc5)c(S(=O)(=O)C(F)(F)F)c4)cc3)CC2)C1 [Navitoclax],906,306,517,–,2200,1540,1740,1000,–,–,235,–,101,–,–,166,–,–,373,614,–,109,27.4,884,–,–,–,162,–,289,–,–,–,–
CCN(CC)CCCC(C)Nc1ccnc2cc(Cl)ccc12 (configuration not stated) [Chloroquine],50800,5120,20800,20400,15300,4950,568,12400,17300,43200,–,–,–,–,–,–,–,–,–,–,–,–,–,38400,–,18800,24800,10400,23900,34600,13400,5410,96800,17900
